Results on six compounds are retold here after US20160108049A1 (TAKEDA Gmbh, priority 2011, published 2016).

The target of one assay is T1, PDE4B1 (Homo sapiens, UniProt Q07343).
T1 construct: made in house; host or cells: SF21 insect cells (baculovirus; virus made in SF9 cells, pCR-Bac vector)
Description: Inhibition of PDE4 activity (PDE4B1, SPA assay). In kind it is biochemical. Particulars: recombinant PDE4B1, 0.5 μM cAMP; read-out: PDE4B1 Inhibitory values measured as -logIC50 (converted). An outline of the steps:
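Baculovirus-expressed enzyme from SF21 cell 1000×g supernatant; substrate 0.5 μM [3H]cAMP in 20 mM Tris pH 7.4, 5 mM Mg2+, 0.1 mg/ml BSA, 10-20% conversion. 5 min preincubation at 37 °C, 15 min reaction, stopped by SPA beads with IBMX; IC50 by non-linear regression.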

Another assay has as its target T2, human PDE5 (Homo sapiens, UniProt O76074).
T2 construct: from tissue; host or cells: human platelets from fresh donor blood (platelet lysate)
Description: Inhibition of PDE5 activity (platelet lysate, SPA assay). In kind it is biochemical. Particulars: 0.5 μM cGMP, read-out: PDE5 Inhibitory values measured as -logIC50 (converted). An outline of the steps: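 Human platelet lysate (10,000 g supernatant) served as PDE5 source, with 1 μM motapizone and 10 nM PDE2 inhibitor added, in Tris pH 7.4, 5 mM Mg2+, BSA. Substrate 0.5 μM [3H]cGMP, 10–20% conversion; 5 min preincubation then 15 min at 37 °C, stopped by SPA beads with IBMX. IC50 by non-linear regression.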

T1 sequence (Q07343 whole entry): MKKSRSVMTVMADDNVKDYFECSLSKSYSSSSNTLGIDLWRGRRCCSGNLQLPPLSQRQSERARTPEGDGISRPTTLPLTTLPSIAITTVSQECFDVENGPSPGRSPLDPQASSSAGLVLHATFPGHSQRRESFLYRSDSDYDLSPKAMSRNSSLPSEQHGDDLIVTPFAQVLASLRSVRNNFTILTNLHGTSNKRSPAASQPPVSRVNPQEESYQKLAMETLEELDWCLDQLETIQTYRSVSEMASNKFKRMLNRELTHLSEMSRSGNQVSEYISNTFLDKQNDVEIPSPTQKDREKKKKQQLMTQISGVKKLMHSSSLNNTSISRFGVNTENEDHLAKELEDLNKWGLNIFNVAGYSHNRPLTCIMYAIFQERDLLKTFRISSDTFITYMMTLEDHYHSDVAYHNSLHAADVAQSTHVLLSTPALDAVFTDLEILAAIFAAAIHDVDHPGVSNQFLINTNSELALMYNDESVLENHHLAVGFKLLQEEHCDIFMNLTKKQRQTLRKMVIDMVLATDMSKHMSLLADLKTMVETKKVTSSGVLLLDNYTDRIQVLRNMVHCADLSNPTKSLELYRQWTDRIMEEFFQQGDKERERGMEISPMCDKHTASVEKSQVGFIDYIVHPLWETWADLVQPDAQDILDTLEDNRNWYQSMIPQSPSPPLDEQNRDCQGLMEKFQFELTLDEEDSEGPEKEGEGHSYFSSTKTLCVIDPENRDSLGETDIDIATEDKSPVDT

Consider `COc1ccc(C2=NN(C3CCN(C(=O)[C@H](Cc4c[nH]cn4)NC(=O)c4c[nH]c5c(-c6c(OCC7CC7)ccc7c6OCO7)ncnc45)CC3)C(=O)[C@@H]3CCCC[C@H]23)cc1OC` [Example 90, 4-[5-(cyclopropylmethoxy)-1,3-benzodioxol-4-yl]-N-[(2S)-1-{4-[(4aS,8aR)-4-(3,4-dimethoxyphenyl)-1-oxo-4a,5,6,7,8,8a-hexahydrophthalazin-2(1H)-yl]piperidin-1-yl}-3-(1H-imidazol-4-yl)-1-oxopropan-2-yl]-5H-pyrrolo[3,2-d]pyrimidine-7-carboxamide], for which the IC50 on PDE4B1 and on human PDE5 was under 1 nM in each case.
On to `CC[C@H](C)[C@H](NC(=O)c1c[nH]c2c(-c3c(OCC4CC4)ccc4c3OCO4)ncnc12)C(=O)N1CCC(N2N=C(c3ccc(OC)c(OC)c3)[C@H]3CCCC[C@H]3C2=O)CC1` [Example 71, 4-[5-(cyclopropylmethoxy)-1,3-benzodioxol-4-yl]-N-[(2S,3S)-1-{4-[(4aS,8aR)-4-(3,4-dimethoxyphenyl)-1-oxo-4a,5,6,7,8,8a-hexahydrophthalazin-2(1H)-yl]piperidin-1-yl}-3-methyl-1-oxopentan-2-yl]-5H-pyrrolo[3,2-d]pyrimidine-7-carboxamide], for which the IC50 is under 1 nM on PDE4B1 and 1 to 10 nM at human PDE5.
With `COc1cc(OCC2CC2)c(-c2ncnc3c(C(=O)N[C@@H](Cc4cccc(C)c4)C(=O)N4CCC(N5N=C(c6ccc(OC)c(OC)c6)[C@H]6CCCC[C@H]6C5=O)CC4)c(C)[nH]c23)cc1F` [Example 2, 4-[2-(cyclopropylmethoxy)-5-fluoro-4-methoxyphenyl]-N-[(2S)-1-{4-[(4aS,8aR)-4-(3,4-dimethoxyphenyl)-1-oxo-4a,5,6,7,8,8a-hexahydrophthalazin-2(1H)-yl]piperidin-1-yl}-3-(3-methylphenyl)-1-oxopropan-2-yl]-6-methyl-5H-pyrrolo[3,2-d]pyrimidine-7-carboxamide], the IC50 at PDE4B1 and on human PDE5 was 1 to 10 nM in each case.
With `COc1ccc(C2=NN(C3CCN(C(=O)[C@H](CCC(=O)NC(C)C)NC(=O)c4c[nH]c5c(-c6c(OCC7CC7)ccc7c6OCO7)ncnc45)CC3)C(=O)[C@@H]3CCCC[C@H]23)cc1OC` [Example 106, 4-[5-(cyclopropylmethoxy)-1,3-benzodioxol-4-yl]-N-[(2S)-1-{4-[(4aS,8aR)-4-(3,4-dimethoxyphenyl)-1-oxo-4a,5,6,7,8,8a-hexahydrophthalazin-2(1H)-yl]piperidin-1-yl}-1,5-dioxo-5-(propan-2-ylamino)pentan-2-yl]-5H-pyrrolo[3,2-d]pyrimidine-7-carboxamide], the IC50 at PDE4B1 and at human PDE5 was 1 to 10 nM throughout.
On to `COc1ccc(C2=NN(C3CCN(C(=O)[C@@H](NC(=O)c4c[nH]c5c(-c6c(OCC7CC7)ccc7c6OCO7)ncnc45)[C@@H](C)O)CC3)C(=O)[C@@H]3CCCC[C@H]23)cc1OC` [Example 63, 4-[5-(cyclopropylmethoxy)-1,3-benzodioxol-4-yl]-N-[(2S,3R)-1-{4-[(4aS,8aR)-4-(3,4-dimethoxyphenyl)-1-oxo-4a,5,6,7,8,8a-hexahydrophthalazin-2(1H)-yl]piperidin-1-yl}-3-hydroxy-1-oxobutan-2-yl]-5H-pyrrolo[3,2-d]pyrimidine-7-carboxamide], for which the IC50 at PDE4B1 and at human PDE5 was under 1 nM in each case.
Take `COc1ccc(C2=NN(C3CCN(C(=O)[C@H](NC(=O)c4c[nH]c5c(-c6c(OCC7CC7)ccc7c6OCO7)ncnc45)C4CCCCC4)CC3)C(=O)[C@@H]3CCCC[C@H]23)cc1OC` [Example 72, N-[(1R)-1-cyclohexyl-2-{4-[(4aS,8aR)-4-(3,4-dimethoxyphenyl)-1-oxo-4a,5,6,7,8,8a-hexahydrophthalazin-2(1H)-yl]piperidin-1-yl}-2-oxoethyl]-4-[5-(cyclopropylmethoxy)-1,3-benzodioxol-4-yl]-5H-pyrrolo[3,2-d]pyrimidine-7-carboxamide]: the IC50 at PDE4B1 was under 1 nM; on human PDE5, 1 to 10 nM.
